Data on eleven compounds can be found in patent EP0318859A2, “N-substituted mercaptopropanamide derivatives” (Dainippon Pharmaceutical Co., Ltd., priority 1987, dated 1989).

Experiment [1] concerns Female Std:ddy mice. Kind of experiment: Analgesic activity (mouse phenylquinone writhing test). The format is in vivo. The settings on record: po, 30 minutes before i.p. phenylquinone, reduction in writhes greater than 50 % of vehicle control = effective, Litchfield and Wilcoxon, read-out: ED₅₀. The protocol: (1) Analgesic activity (mouse phenylquinone writhing test)
Female Std:ddy mice (weighing 18 - 22 g) were used. Each animal was given intraperitoneally 10 ml/kg of 0.03 % phenylquinone in 5 % aqueous ethanol, and the number of writhes was counted for 15 minutes, beginning 5 minutes after the injection of phenylquinone. Test compounds, suspended or dissolved in 0.5 % gum tragacanth aqueous solution, were given orally 30 minutes before the injection of phenylquinone. A reduction in writhes counts greater than 50 % of the vehicle control value was considered to be effective. The ED₅₀-value was calculated from the effective rate according to the method of Litchfield and Wilcoxon.

Experiment [2] concerns the target T1, enkephalinase (Rattus norvegicus, UniProt P07861).
T1 construct: Male Std:Wistar rats were decapitated and the striata were removed; from tissue; host or cells: rat striatum (membrane pellet, solubilised with 1 % Triton X-100, DEAE-cellulose fraction)
T1 sequence (P07861 1-750): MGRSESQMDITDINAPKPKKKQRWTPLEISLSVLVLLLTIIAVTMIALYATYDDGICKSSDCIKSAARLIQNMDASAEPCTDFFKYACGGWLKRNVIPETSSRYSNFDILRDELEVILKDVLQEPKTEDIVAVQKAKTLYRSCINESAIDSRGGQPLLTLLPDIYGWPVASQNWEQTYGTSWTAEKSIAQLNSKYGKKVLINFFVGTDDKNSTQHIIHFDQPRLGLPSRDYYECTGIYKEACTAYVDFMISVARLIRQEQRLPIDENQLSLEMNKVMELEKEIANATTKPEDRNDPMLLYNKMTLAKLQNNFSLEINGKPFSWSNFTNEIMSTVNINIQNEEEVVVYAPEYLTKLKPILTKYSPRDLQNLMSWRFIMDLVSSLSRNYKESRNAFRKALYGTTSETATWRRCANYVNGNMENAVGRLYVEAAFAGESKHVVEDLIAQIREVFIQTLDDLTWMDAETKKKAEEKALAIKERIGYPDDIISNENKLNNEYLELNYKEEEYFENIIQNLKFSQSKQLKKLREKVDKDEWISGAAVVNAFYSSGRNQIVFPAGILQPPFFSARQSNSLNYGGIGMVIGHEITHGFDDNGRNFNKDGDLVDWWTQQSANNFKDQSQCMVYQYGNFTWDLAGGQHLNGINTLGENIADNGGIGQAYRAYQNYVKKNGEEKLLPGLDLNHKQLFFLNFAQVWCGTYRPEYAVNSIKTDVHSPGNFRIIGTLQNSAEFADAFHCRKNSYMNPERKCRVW
The experiment is described as follows: Enkephalinase inhibitory activity in vitro ([³H]-leucine-enkephalin degradation). The format is biochemical, rats. The conditions noted are these: rat striatum enkephalinase; substrate [³H]-leucine-enkephalin 20 nM; 1 hour at 37°C; read-out: IC₅₀. The protocol:
(3) Enkephalinase inhibitory activity in vitro
Enkephalin degrading enzymes were separated according to the method described by Gorenstein and Snyder (Life Science, 25, 2065 (1979)).
Male Std:Wistar rats were decapitated and the striata were removed. These were homogenized in 30 volumes of 50 mM Tris-HCl buffer (pH 7.4) and centrifuged for 15 minutes at 1,000 x g. The supernatant was centrifuged for 15 minutes at 50,000 x g. The pellet was washed three times with the same buffer and then suspended in 15 volumes of 50 mM Tris-HCl buffer (pH 7.4) containing 1 % Triton X-100, followed by incubation for 45 minutes at 37°C. After centrifugation for 1 hour at 100,000 x g, the supernatant was applied onto DEAE-cellulose ion exchange chromatography column. The fraction containing enkephalin dipeptidylcarboxypeptidase was used as enkephalinase sample.
(ii) Measurement of inhibitory activity
After preincubation of test compound and enkephalinase for 5 minutes at 37°C, [³H]-leucine-enkephalin (substrate) was added to the reaction mixture and then the mixture was incubated for 1 hour at 37°C (final volume: 100 µl, final concentration of substarate: 20 nM). Ice-cold 0.2N HCl was added to the mixture to stop the reaction. Substrate and metabolites were separated with TLC and Porapak Q® column by the method of Vogel and Alstein [FEBS Letters, 80, 332 (1977)]. Enzyme activity was estimated from the production rate of [³H]-Tyr-Gly-Gly. The IC₅₀-value of test compounds was calculated from the inhibitory rates, estimated from the difference between the enzyme activities in the absence and the presence of test compound.

Experiment [3] relates to enkephalinase. The experiment is described as follows: Enkephalinase inhibitory activity in vivo (potentiation of the analgesic activity of DAME, tail pressure pain). The settings on record: p.o., 30 minutes before intracisternal DAME; pressure pain threshold measured 5 minutes after DAME; male Std:ddy mice. On the procedure: (2) Enkephalinase inhibitory activity in vivo
(Potentiation of the analgesic activity of DAME)
Pressure pain was induced by pressing the tail of male Std:ddy mice (weighing 20 - 26 g) using an apparatus for pressure measurement. The pressure pain threshold (biting response) was measured as mm. Test compound, dissolved or suspended in 0.5 % gum tragacanth aqueous solution, was given orally 30 minutes before intracisternaly administration of D-Ala²-Met⁵-enkephalin (DAME). Five minutes after administration of DAME, the pressure pain threshold was measured, and the potentiation activity of test compounds on the analgesic effect of DAME was tested.

Molecules are shown by their SMILES.

In the case of `CC(=O)SCC(CC(C)C)C(=O)Nc1cc(C)cc(C(=O)O)c1` (stereo not shown) [Example 176, 3-[(2-acetylthiomethyl-4-methylpentanoyl)amino]-5-methylbenzoic acid], the ED50 in experiment [1] is 22.9 mg/kg.
Turning to `Cc1c(NC(=O)C(CS)CC(C)C)cccc1C(=O)O` (stereo not shown) [Example 187, 3-[(2-mercaptomethyl-4-methylpentanoyl)amino]-2-methylbenzoic acid], the IC50 in experiment [2] is 7.8 nM. Moreover, the ED50 in experiment [1] came out at 20.1 mg/kg.
As for `CCc1cc(NC(=O)C(CSC(C)=O)Cc2ccccc2)cc(C(=O)O)c1` (stereo not shown) [Example 64, 3-[(2-acetylthiomethyl-3-phenylpropionyl)amino]-5-ethylbenzoic acid], in experiment [3], the ED₅₀ came to 20.8 mg/kg. The ED50 in experiment [1] is 11 mg/kg.
With `CCc1cc(NC(=O)C(CS)Cc2ccccc2)cc(C(=O)O)c1` (stereo not shown) [Example 65, 3-[(2-mercaptomethyl-3-phenylpropionyl)amino]-5-ethylbenzoic acid], the IC50 in experiment [2] was determined as 4.6 nM. For the same compound, in experiment [1], the ED50 was 22.9 mg/kg.
With `Cc1cc(NC(=O)C(CS)Cc2ccccc2)cc(C(=O)O)c1` (stereo not shown) [Example 2, 3-[(2-mercaptomethyl-3-phenylpropionyl)amino]-5-methylbenzoic acid], in experiment [3], the ED₅₀ is 20.2 mg/kg. In addition, the IC50 in experiment [2] stood at 5.4 nM. Moreover, in experiment [1], the ED50 was 16.6 mg/kg.
On to `CC(=O)SCC(CC(C)C)C(=O)Nc1cccc(C(=O)O)c1C` (stereo not shown) [Example 175, 3-[(2-acetylthiomethyl-4-methylpentanoyl)amino]-2-methylbenzoic acid], for which the ED50 in experiment [1] stood at 21.1 mg/kg.
On the same count and under the same terms, to `O=C(O)CNC(=O)C(CS)Cc1ccccc1` (stereo not shown) [Thiorphan, [(D,L)-2-mercaptomethyl-3-phenylpropionyl]glycine, reference compound] belongs 137 mg/kg; to `CC(=O)SCC(Cc1ccccc1)C(=O)Nc1cccc(C(=O)O)c1C` (stereo not shown) [Example 3, 3-[(2-acetylthiomethyl-3-phenylpropionyl)amino]-2-methylbenzoic acid], 21.6 mg/kg.
As for `CC(C)CC(CS)C(=O)Nc1cccc(C(=O)O)c1` (stereo not shown) [Example 186, 3-[(2-mercaptomethyl-4-methylpentanoyl)amino]benzoic acid], the IC50 in experiment [2] is 8.4 nM. In experiment [1], the ED50 came out at 15 mg/kg.
With `CC(=O)SCC(Cc1ccccc1)C(=O)Nc1cc(C)cc(C(=O)O)c1` (stereo not shown) [Example 1, 3-[(2-acetylthiomethyl-3-phenylpropionyl)amino]-5-methylbenzoic acid], in experiment [1], the ED50 was 22.3 mg/kg.
On to `Cc1c(NC(=O)C(CS)Cc2ccccc2)cccc1C(=O)O` (stereo not shown) [Example 7, 3-[(2-mercaptomethyl-3-phenylpropionyl)amino]-2-methylbenzoic acid], for which the ED₅₀ in experiment [3] is recorded as 38.3 mg/kg. Besides, the IC50 in experiment [2] came to 7.5 nM. In addition, in experiment [1], the ED50 came to 17.9 mg/kg.
